Laboratory results taken from article PMC4447944 (The Journal of Biological Chemistry, 2015).

Legend:
hADRβ1 = hADRβ1 (Homo sapiens, UniProt P08588); experiment: cAMP Potentiation (Eurofins-CEREP); details: @ 10 μM
hRARα = biological target: T1, hRARα (Homo sapiens, UniProt P10276); experiment: Nuclear hormone receptor assay (Eurofins-CEREP); details: read-out: Relative IC50
T1 construct: Eurofins-CEREP

hEIF2AK1 = biological target: T2, hEIF2AK1 (Homo sapiens, UniProt Q9BQI3); experiment: KINOMEscan; type: binding
T2 construct: purchased DiscoverX

hDYRK2 = biological target: T3, hDYRK2 (Homo sapiens, UniProt Q92630); experiment: KINOMEscan; type: binding
T3 construct: purchased DiscoverX
T3 sequence (Q92630 whole entry): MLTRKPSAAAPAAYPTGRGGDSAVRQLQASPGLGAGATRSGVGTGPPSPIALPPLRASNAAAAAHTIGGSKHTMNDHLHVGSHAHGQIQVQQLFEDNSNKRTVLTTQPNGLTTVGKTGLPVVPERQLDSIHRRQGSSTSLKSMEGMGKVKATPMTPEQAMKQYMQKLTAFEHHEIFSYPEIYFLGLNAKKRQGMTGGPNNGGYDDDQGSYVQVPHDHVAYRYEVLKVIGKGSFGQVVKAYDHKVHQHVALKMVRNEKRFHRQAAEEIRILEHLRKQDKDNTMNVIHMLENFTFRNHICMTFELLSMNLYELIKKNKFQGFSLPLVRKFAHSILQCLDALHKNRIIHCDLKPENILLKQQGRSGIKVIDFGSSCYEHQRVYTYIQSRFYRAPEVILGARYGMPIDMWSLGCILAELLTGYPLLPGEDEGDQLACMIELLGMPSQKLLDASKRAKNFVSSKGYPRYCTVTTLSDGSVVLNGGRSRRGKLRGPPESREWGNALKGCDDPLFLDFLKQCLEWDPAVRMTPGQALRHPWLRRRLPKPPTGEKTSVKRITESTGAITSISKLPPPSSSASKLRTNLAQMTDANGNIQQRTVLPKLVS

hERK3 = biological target: T4, hERK3 (Homo sapiens, UniProt Q16659); experiment: KINOMEscan; type: binding
T4 construct: purchased DiscoverX

hEPHB6 = biological target: T5, hEPHB6 (Homo sapiens, UniProt O15197); experiment: KINOMEscan; type: binding
T5 construct: purchased DiscoverX

hADRα2A = biological target: T6, hADRα2A (Homo sapiens, UniProt P08913); experiment: cAMP Potentiation (Eurofins-CEREP); details: @ 10 μM
T6 sequence (P08913 1-465): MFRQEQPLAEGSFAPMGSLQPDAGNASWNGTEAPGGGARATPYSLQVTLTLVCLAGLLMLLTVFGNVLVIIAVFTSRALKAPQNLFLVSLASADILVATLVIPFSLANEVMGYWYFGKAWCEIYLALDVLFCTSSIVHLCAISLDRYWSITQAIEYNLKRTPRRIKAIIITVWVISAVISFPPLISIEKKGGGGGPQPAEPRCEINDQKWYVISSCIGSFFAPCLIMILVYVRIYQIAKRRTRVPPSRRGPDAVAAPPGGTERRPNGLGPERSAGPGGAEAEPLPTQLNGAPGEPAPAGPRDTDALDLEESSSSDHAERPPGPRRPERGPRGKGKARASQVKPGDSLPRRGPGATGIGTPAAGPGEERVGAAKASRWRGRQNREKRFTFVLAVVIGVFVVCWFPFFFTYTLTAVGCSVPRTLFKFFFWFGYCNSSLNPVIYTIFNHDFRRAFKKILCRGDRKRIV

hRIOK1 = biological target: T7, hRIOK1 (Homo sapiens, UniProt Q9BRS2); experiment: KINOMEscan; type: binding
T7 construct: purchased DiscoverX (KINOMEscan platform)

hTRKC = biological target: T8, hTRKC (Homo sapiens, UniProt Q16288); experiment: KINOMEscan; type: binding
T8 construct: purchased DiscoverX

hD1 = hD1 (Homo sapiens, UniProt P21728); experiment: cAMP 1% DMSO Potentiation (Eurofins-CEREP); details: @ 10 μM
hD1, sequence (P21728 whole entry): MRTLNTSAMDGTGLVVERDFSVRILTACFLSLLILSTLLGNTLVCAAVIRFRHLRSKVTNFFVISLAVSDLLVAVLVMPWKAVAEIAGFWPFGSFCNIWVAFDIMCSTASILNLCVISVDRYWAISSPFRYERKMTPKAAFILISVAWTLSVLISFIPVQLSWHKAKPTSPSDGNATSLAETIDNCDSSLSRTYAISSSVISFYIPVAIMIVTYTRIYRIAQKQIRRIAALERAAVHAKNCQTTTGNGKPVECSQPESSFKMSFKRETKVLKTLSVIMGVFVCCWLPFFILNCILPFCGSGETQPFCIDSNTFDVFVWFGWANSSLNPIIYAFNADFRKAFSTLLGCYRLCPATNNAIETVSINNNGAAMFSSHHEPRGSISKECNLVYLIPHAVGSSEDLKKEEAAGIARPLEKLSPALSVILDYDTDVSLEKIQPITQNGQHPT

hULK2 = biological target: T9, hULK2 (Homo sapiens, UniProt Q8IYT8); experiment: KINOMEscan; type: binding
T9 construct: purchased DiscoverX

hABL1(pT315I) = biological target: T10, hABL1(pT315I) (Homo sapiens, UniProt P00519, T315I); experiment: KINOMEscan; type: binding
T10 construct: purchased DiscoverX (KINOMEscan platform)

hTXK = biological target: T11, hTXK (Homo sapiens, UniProt P42681); experiment: KINOMEscan; type: binding
T11 construct: purchased DiscoverX

hPYK2 = biological target: T12, hPYK2 (Homo sapiens, UniProt Q14289); experiment: KINOMEscan; type: binding
T12 construct: purchased DiscoverX

hD2L = hD2L (Homo sapiens, UniProt P14416); experiment: cAMP Potentiation (Eurofins-CEREP); details: @ 10 μM
hEGFR(L858R,T790M) = biological target: T13, hEGFR(L858R,T790M) (Homo sapiens, UniProt P00533, L858R/T790M); experiment: KINOMEscan; type: binding
T13 construct: purchased DiscoverX

hSTK35 = biological target: T14, hSTK35 (Homo sapiens, UniProt Q8TDR2); experiment: KINOMEscan; type: binding
T14 construct: purchased DiscoverX (KINOMEscan platform)
T14 sequence (Q8TDR2 whole entry): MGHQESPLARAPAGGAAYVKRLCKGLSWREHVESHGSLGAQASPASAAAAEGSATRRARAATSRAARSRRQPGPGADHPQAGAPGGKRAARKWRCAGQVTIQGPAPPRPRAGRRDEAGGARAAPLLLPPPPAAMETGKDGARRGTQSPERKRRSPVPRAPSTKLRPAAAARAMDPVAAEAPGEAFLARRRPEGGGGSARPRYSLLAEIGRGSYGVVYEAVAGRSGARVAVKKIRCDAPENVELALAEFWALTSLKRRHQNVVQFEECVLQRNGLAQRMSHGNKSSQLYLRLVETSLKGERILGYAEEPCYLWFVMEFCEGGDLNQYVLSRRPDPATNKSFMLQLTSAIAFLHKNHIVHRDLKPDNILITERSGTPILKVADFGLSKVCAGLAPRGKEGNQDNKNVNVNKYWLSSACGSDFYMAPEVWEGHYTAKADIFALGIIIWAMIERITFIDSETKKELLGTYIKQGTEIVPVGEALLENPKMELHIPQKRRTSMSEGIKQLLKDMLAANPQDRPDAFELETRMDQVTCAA

hMERTK = biological target: T15, hMERTK (Homo sapiens, UniProt Q12866); experiment: KINOMEscan; type: binding
T15 construct: purchased DiscoverX

hFLT3-autoinhibited = biological target: T16, hFLT3-autoinhibited (Homo sapiens, UniProt P36888); experiment: KINOMEscan; type: binding
T16 construct: purchased DiscoverX

hCDKL3 = biological target: T17, hCDKL3 (Homo sapiens, UniProt Q8IVW4); experiment: KINOMEscan; type: binding
T17 construct: purchased DiscoverX

hKIT(V559D,V654A) = biological target: T18, hKIT(V559D,V654A) (Homo sapiens, UniProt P10721, V559D/V654A); experiment: KINOMEscan; type: binding
T18 construct: purchased DiscoverX (KINOMEscan platform)

hAKT1 = biological target: T19, hAKT1 (Homo sapiens, UniProt P31749); experiment: KINOMEscan; type: binding
T19 construct: purchased DiscoverX
T19 sequence (P31749 whole entry): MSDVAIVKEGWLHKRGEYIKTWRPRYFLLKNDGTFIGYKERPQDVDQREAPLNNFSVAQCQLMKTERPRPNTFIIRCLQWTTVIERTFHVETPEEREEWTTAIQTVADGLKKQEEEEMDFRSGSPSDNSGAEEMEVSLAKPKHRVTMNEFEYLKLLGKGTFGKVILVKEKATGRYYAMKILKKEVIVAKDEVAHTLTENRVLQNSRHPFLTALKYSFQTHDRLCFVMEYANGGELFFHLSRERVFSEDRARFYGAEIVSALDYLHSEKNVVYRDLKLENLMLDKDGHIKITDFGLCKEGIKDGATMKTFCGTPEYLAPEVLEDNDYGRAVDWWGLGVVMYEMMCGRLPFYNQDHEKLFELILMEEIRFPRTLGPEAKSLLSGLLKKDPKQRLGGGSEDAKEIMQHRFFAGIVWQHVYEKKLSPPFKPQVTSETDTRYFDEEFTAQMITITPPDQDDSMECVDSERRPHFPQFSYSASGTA

hROS1 = biological target: T20, hROS1 (Homo sapiens, UniProt P08922); experiment: KINOMEscan; type: binding
T20 construct: purchased DiscoverX (KINOMEscan platform)

hEPHA3 = biological target: T21, hEPHA3 (Homo sapiens, UniProt P29320); experiment: KINOMEscan; type: binding
T21 construct: purchased DiscoverX

h5HT2B = h5HT2B (Homo sapiens, UniProt P41595); experiment: Calcium Mobilization Agonist (Eurofins-CEREP); details: @ 13.3 μM
hSRPK2 = biological target: T22, hSRPK2 (Homo sapiens, UniProt P78362); experiment: KINOMEscan; type: binding
T22 construct: purchased DiscoverX (KINOMEscan platform)

hKIT(V559D) = biological target: T23, hKIT(V559D) (Homo sapiens, UniProt P10721, V559D); experiment: KINOMEscan; type: binding
T23 construct: purchased DiscoverX (KINOMEscan platform)

hFGFR3 = biological target: T24, hFGFR3 (Homo sapiens, UniProt P22607); experiment: KINOMEscan; type: binding
T24 construct: purchased DiscoverX
T24 sequence (P22607 23-806): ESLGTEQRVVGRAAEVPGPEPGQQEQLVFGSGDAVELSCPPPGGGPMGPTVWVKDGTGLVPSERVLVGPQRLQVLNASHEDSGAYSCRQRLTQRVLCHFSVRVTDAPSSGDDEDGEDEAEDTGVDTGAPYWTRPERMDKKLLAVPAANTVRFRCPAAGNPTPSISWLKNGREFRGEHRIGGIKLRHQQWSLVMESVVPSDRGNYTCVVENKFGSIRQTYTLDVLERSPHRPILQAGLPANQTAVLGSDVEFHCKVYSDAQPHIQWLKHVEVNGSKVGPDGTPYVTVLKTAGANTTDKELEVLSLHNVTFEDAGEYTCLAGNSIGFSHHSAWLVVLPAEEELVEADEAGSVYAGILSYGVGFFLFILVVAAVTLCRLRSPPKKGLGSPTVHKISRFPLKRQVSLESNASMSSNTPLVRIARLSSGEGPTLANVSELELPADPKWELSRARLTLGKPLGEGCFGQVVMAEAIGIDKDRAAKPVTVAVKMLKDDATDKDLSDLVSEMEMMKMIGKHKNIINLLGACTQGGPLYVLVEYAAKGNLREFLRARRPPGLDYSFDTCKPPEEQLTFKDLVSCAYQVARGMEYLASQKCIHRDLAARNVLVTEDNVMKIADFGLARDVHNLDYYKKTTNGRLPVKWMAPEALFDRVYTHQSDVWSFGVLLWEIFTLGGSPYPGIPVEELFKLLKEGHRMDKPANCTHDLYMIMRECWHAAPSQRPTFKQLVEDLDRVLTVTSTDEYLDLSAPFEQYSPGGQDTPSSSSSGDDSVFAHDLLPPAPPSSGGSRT

hYES = biological target: T25, hYES (Homo sapiens, UniProt P07947); experiment: KINOMEscan; type: binding
T25 construct: purchased DiscoverX
T25 sequence (P07947 whole entry): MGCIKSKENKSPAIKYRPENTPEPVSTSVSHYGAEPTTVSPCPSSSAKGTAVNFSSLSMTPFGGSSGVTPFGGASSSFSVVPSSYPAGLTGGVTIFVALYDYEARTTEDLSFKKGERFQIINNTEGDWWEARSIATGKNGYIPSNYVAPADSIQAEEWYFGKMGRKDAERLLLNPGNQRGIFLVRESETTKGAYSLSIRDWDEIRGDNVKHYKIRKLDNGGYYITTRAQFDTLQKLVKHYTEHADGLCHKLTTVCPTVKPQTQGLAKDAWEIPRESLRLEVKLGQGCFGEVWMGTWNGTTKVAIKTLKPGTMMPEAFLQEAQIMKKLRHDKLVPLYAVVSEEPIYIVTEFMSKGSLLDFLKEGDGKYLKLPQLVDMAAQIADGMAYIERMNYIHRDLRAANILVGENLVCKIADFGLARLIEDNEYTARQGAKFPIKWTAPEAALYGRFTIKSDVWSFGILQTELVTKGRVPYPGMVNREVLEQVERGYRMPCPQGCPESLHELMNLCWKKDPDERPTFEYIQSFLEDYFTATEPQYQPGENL

hJNK2 = biological target: T26, hJNK2 (Homo sapiens, UniProt P45984); experiment: KINOMEscan; type: binding
T26 construct: purchased DiscoverX (KINOMEscan panel)

hASK1 = biological target: T27, hASK1 (Homo sapiens, UniProt Q99683); experiment: KINOMEscan; type: binding
T27 construct: purchased DiscoverX

hGRK1 = biological target: T28, hGRK1 (Homo sapiens, UniProt Q15835); experiment: KINOMEscan; type: binding
T28 construct: purchased DiscoverX
T28 sequence (Q15835 whole entry): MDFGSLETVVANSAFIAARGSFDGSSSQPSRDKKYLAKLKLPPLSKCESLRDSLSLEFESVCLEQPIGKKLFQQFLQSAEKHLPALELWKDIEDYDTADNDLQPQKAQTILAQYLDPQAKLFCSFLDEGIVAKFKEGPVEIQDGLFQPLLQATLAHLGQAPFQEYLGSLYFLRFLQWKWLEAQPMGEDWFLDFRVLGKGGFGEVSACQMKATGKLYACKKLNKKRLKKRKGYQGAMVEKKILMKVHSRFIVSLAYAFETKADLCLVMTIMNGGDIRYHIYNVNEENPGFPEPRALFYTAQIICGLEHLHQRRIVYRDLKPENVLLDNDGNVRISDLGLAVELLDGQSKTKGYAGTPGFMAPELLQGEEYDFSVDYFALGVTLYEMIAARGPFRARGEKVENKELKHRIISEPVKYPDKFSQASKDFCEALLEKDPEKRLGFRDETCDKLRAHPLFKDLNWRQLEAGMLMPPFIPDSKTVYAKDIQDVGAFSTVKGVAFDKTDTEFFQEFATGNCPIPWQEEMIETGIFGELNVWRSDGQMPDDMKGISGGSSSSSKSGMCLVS

hEPHB3 = biological target: T29, hEPHB3 (Homo sapiens, UniProt P54753); experiment: KINOMEscan; type: binding
T29 construct: purchased DiscoverX

hWNK1 = biological target: T30, hWNK1 (Homo sapiens, UniProt Q9H4A3); experiment: KINOMEscan; type: binding
T30 construct: purchased DiscoverX

hSYK = biological target: T31, hSYK (Homo sapiens, UniProt P43405); experiment: KINOMEscan; type: binding
T31 construct: purchased DiscoverX (KINOMEscan platform)

hADRβ1, sequence (P08588 whole entry): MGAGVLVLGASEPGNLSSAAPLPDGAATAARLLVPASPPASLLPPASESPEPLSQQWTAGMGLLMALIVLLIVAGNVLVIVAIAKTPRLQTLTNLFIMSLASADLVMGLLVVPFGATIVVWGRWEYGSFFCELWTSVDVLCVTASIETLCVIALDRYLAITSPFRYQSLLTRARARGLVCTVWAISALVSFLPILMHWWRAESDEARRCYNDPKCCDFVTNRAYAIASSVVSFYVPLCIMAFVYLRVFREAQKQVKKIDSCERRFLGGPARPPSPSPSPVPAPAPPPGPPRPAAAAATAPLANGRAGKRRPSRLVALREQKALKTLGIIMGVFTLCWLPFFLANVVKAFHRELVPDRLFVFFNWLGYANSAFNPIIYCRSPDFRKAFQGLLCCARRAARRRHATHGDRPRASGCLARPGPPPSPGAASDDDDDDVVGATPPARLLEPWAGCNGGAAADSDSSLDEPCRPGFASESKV
T1 sequence (P10276 whole entry): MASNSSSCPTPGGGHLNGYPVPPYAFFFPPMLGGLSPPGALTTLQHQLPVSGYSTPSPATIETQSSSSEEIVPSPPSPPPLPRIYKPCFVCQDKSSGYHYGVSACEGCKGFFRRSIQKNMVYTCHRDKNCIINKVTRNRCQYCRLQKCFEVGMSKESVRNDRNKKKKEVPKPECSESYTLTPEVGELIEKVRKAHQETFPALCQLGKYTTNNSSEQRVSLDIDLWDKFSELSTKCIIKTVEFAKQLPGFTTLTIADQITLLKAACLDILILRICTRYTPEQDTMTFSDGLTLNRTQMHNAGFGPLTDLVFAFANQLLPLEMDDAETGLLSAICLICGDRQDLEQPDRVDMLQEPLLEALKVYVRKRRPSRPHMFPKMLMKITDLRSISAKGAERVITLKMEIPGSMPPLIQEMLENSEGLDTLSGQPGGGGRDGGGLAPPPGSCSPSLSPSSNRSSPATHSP

Cc1cn(CCN2CCN(c3ccccc3-c3cc(C#N)cc(C(=O)NCCCN4CCCC4)c3)CC2)c2ccccc12 [LLY-507, 3-cyano-5-{2-[4-[2-(3-methylindol-1-yl)ethyl]piperazin-1-yl]-phenyl}-N-[(3-pyrrolidin-1-yl)propyl]benzamide]
% Effect, Potentiation (hADRβ1): 32.1%
IC50 (hRARα): > 10 µM
IC50 (hEIF2AK1): > 20 µM
IC50 (hDYRK2): > 20 µM
IC50 (hERK3): > 20 µM
IC50 (hEPHB6): > 20 µM
% Effect, Potentiation (hADRα2A): -20.5%
IC50 (hRIOK1): > 20 µM
IC50 (hTRKC): > 20 µM
% Effect, Potentiation (hD1): -19.4%
IC50 (hULK2): > 20 µM
IC50 (hABL1(pT315I)): > 20 µM
IC50 (hTXK): > 20 µM
IC50 (hPYK2): > 20 µM
% Effect, Potentiation (hD2L): -27.5%
IC50 (hEGFR(L858R,T790M)): > 20 µM
IC50 (hSTK35): > 20 µM
IC50 (hMERTK): > 20 µM
IC50 (hFLT3-autoinhibited): > 20 µM
IC50 (hCDKL3): > 20 µM
IC50 (hKIT(V559D,V654A)): > 20 µM
IC50 (hAKT1): > 20 µM
IC50 (hROS1): > 20 µM
IC50 (hEPHA3): > 20 µM
% Effect, Stimulation (h5HT2B): 3.4%
IC50 (hSRPK2): > 20 µM
IC50 (hKIT(V559D)): > 20 µM
IC50 (hFGFR3): > 20 µM
IC50 (hYES): > 20 µM
IC50 (hJNK2): > 20 µM
IC50 (hASK1): > 20 µM
IC50 (hGRK1): > 20 µM
IC50 (hEPHB3): > 20 µM
IC50 (hWNK1): > 20 µM
IC50 (hSYK): > 20 µM
